The text below walks through data of US10155726B2, “Substituted pyridines and uses thereof” (PELOTON THERAPEUTICS, INC., priority 2015, dated 2018).

SMILES strings stand for the structures. pEC50, pIC50: −log10 of the molar value. Entries after “also recorded” stand apart in the source; their conditions may differ. Bounds are passed on as bounds.

As a reminder, the pIC50 is the IC50 on a negative log10 scale, so that one unit is a factor of ten. Broadly, the pEC50 is the negative decadic logarithm of the EC50, by convention in mol/L.

In test [1] the target is T1, HIF-2α HIS TAG-PASB Domain (Homo sapiens, UniProt Q99814).
T1 construct: 100 nM HIF-2α HIS TAG-PASB Domain
T1 sequence (Q99814 239-348): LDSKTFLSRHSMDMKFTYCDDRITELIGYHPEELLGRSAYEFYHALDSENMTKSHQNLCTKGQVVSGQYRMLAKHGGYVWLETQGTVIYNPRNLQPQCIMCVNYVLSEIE
The experiment in a line: HIF-2α Scintillation Proximity Assay (SPA). It is filed as binding. The conditions noted are these: displacement of tritiated probe from HIF-2α PAS-B domain. As to the method: The total assay volume was about 100 μL in the following configuration: 2 μL compound in 100% DMSO, 88 μL buffer with protein and probe and 10 μL of SPA beads. […] The percent inhibition was determined and IC50 values were calculated using the Dotmatics system based on the following equation: % inhibition=[(high control−sample)/(high control−low control)]×100.

The next test deals with 786-O cells. The test is described as follows: VEGF ELISA Assay. It is filed as cell-based. The settings on record: Homo sapiens, 786-0; VEGF concentration in culture medium of 786-O cells. As to the method:
About 7500 786-O cells in 180 μL of growth medium were seeded into each well of a 96-well, white, clear bottom plate (07-200-566, Fisher Scientific) on day one in the layout presented in FIG. 3. […] Each concentration was plated in duplicate. About 20 hours later, medium was removed by suction and each well was supplied with 180 μL of growth medium. About 20 μl freshly-made 10× compound stocks were added to each well. […] The EC50 was calculated by GraphPad Prism using the dose-response-inhibition (four parameter) equation. The cell-seeded plate was then subjected to CellTiter-Glo luminescence cell viability assay (Promega) by adding 50 μL of Celltiter Glo reagent into each well and shaking the plate for 8 minutes at 550 rpm (Thermomixer R, Eppendorf) then the luminescence signal immediately read in a plate reader (3 second delay, 0.5 second/well integration time, Synergy 2 multi Detection Microplate reader).
A general note: An ELISA detects its analyte on a solid surface through an enzyme-linked reagent.

Another test concerns 786-O-Hif-Luc cells. The test is described as follows: Luciferase Assay. It is filed as cell-based. The settings on record: about 24 hours. Here is the method:
786-O-Hif-Luc single clone cells were obtained by infecting 786-O cells (ATCC® CRL-1932™) with commercial lentivirus that delivers a luciferase gene driven by multiple HIF responsive elements (Cignal Lenti HIF Reporter (luc): CLS-007L, Qiagen) at Multiplicity of Infection (MOI) of 25 for 24 hours. […] A pool of infected cells were then selected against 2 μg/mL of puromycin (P8833, Sigma) for 10 days followed by limited dilution to select single clones. […] For the luciferase assay, about 7500 786-O-Hif-Luc cells in 90 μL growth medium were seeded into each well of a 96-well white opaque plate (08-771-26, Fisher scientific) a day before treatment with the layout presented in FIG. 4. […] Each concentration was tested in triplicate. After about 24 hours, luciferase activity was determined using ONE-Glo Luciferase Assay Reagent (E6110, Promega) following the manufacturer's recommended procedure. EC50 were calculated using Dotmatics software.

The test system of test [2] is HIF-2α target genes VEGF, PAI-1 and CCND1. The test is described as follows: PK/PD study: expression of HIF-2α regulated genes in 786-O tumor xenografts by qRT-PCR. It is filed as in vivo, SCID/Biege mice. The settings on record: 10 mg/kg oral gavage, six doses at 12 hour interval, 12 hours post last dose. As to the method:
(§1) When the xenografts reached about 750 mm^3 in size, the tumor bearing mice were randomly grouped into four groups (n=3). […] All animals were sacrificed at 12 hours post last dose. Tumors and plasma were collected from each animal. Total RNA was extracted from the tumors, and the expression levels of putative HIF-2α regulated genes were determined by qRT-PCR. […] The level of human VEGFA was assessed using an ELISA assay.
Background: In qPCR the cycle at which signal appears reflects the starting amount.

A further test relates to human VEGFA. The test is described as follows: PK/PD study: human VEGFA in plasma of 786-O xenograft bearing mice by ELISA. It is filed as in vivo, SCID/Biege mice. The settings on record: 10 mg/kg oral gavage, six doses at 12 hour interval, 12 hours post last dose. Here is the method:
as §1

As to `O[C@H]1c2c(C(F)(F)F)ncc(OC3CC(F)(F)C3)c2[C@@H](F)[C@H]1F` [Compound 37, (5R,6S,7S)-4-(3,3-difluorocyclobutoxy)-5,6-difluoro-1-(trifluoromethyl)-6,7-dihydro-5H-cyclopenta[c]pyridin-7-ol], the pIC50 in test [1] is > 7.30. Further, the pEC50 with 786-O cells and in the test on 786-O-Hif-Luc cells was > 7.30 throughout. Also, in test [2], the “mRNA levels of HIF-2α target genes (VEGF, PAI-1, CCND1) in 786-O xenografts” value was “decreased; also recorded: significant reduction”. In the test with human VEGFA, the “level of human VEGFA in plasma of 786-O xenograft bearing mice” value was “decreased; also recorded: significant reduction”.
